Results from patent publication US20100143319A1, “KIWIFRUIT COMPOSITIONS” (priority 2007, published 2010).

How the values were obtained:
[1] = test system: mouse small intestine motility; assay: First animal trial: small intestine motility experiment (Peristaltic Inhibition Model, diphenoxylate 0.25 g/l); format: in vivo, Kunmin male mice; details: model control: 0.25 g/l diphenoxylate oral, 20 ml/kg BW; mean ± SD, n=10; P<0.01 vs negative control
Excerpt: Experimental animals: 100 Kunmin male mice (class two) were purchased from the animal center in the Academy of Military Medical Sciences of the Chinese PLA, with a weight of 16 to 18 g. • Group 1: 50 mice were randomly divided into 5 experimental groups each of 10 mice (negative control group, model control group and three dosage groups), to test small intestine motility. • Group 2: 50 mice were randomly divided into 5 experimental groups each of 10 mice (negative control group, model control group and three dosage groups), to measure the following parameters: time of first melena defecation, the number of faeces pellets, the weight of faeces, and to observe the shape of the faeces. […]
For this experiment, the dosage was set at 10 times that of the recommended dosage, namely 0.29 g/kgBW per day (4 capsules). […] Oral intubation was used to administer the dose to the mice, at a measured quantity of 20 ml/kgBW.
8 days after oral administration of the different treatments, each group was fasted for 16 hours (with free access to drinking water). Mice in the Peristaltic Inhibition Model control group and the three dose groups were orally administered 0.25 g/l, diphenoxylate at a measured quantity of 20 ml/kg BW. […] The 0 g/kg BW group (negative control group and model control group) were orally administered blank inks with a measured quantity of 20 ml/kg BW. […]

mouse Constipation Model = assay: First animal trial: constipation experiment (Constipation Model, diphenoxylate 0.50 g/l); format: in vivo, Kunmin male mice; details: mean ± SD, n=10
Excerpt: Experimental animals: 100 Kunmin male mice (class two) were purchased from the animal center in the Academy of Military Medical Sciences of the Chinese PLA, with a weight of 16 to 18 g. • Group 1: 50 mice were randomly divided into 5 experimental groups each of 10 mice (negative control group, model control group and three dosage groups), to test small intestine motility. • Group 2: 50 mice were randomly divided into 5 experimental groups each of 10 mice (negative control group, model control group and three dosage groups), to measure the following parameters: time of first melena defecation, the number of faeces pellets, the weight of faeces, and to observe the shape of the faeces. Number of qualitative qualification is SCXK M 2002-001.
For this experiment, the dosage was set at 10 times that of the recommended dosage, namely 0.29 g/kgBW per day (4 capsules). The experiment was designed with a low dosage group (0.145 g/kgBW) (2 capsules) and a high dosage group (0.87 g/kgBW) (12 capsules). The kiwifruit extract was dissolved by gentle agitation into sterile distilled water. For both the negative control group (0 g/kgBW) and the model control group sterile distilled water was used as the treatment. Oral intubation was used to administer the dose to the mice, at a measured quantity of 20 ml/kgBW.
Parameters measured in the animal trial were time of defecation, the number of faeces pellets, the weight of the faeces, and visual observation of the shape of the faeces
The different doses of kiwifruit composition were orally administered to the mice, and the shape of the faeces during the eight day feeding trial was observed. […] The mice in the Peristaltic Inhibition Model control group and the three dose groups were orally administered 0.50 g/l of diphenoxylate in the calculated volume of 20 ml/kg BW, whilst the negative group were given an equivalent volume of water. […] The time of the first melena defecation was recorded, along with the number of faecal pellets within 5 hours and the weight of the faeces, as well as the shape of the faeces.

[2] = model control: 0.50 g/l diphenoxylate oral, 20 ml/kg BW, P 0.000 vs negative control

CCOC(=O)C1(c2ccccc2)CCN(CCC(C#N)(c2ccccc2)c2ccccc2)CC1 [diphenoxylate, Diphenoxylate]
Ink Progression (%) [1]: 33.8 ± 7.0 % | Number of faeces pellets defecated within 5 hours (grain) (mouse Constipation Model; [2]): 25 ± 16 grain | Weight of faeces defecated within 5 hours (mouse Constipation Model; [2]): 0.47 ± 0.26 grain | Time of first melena defecation (mouse Constipation Model; model control: diphenoxylate oral, 20 ml/kg BW (0.50 g/l, 0.25 g/L elsewhere in the source), P<0.01 vs negative control): 231.7 ± 81.7 min
